US9340490B2, “Diagnostic agent for tumor” (SBI PHARMACEUTICALS CO., LTD., priority 2004, dated 2016)
Blank lines part the entries; values can stand above or below the molecule they belong to.

Key:
[1] = test system: MH 134 cell (ascitic liver cancer cell) tumor-bearing mice; settings: female, C3H/He, mouse, in vivo, po
Description: A mouse tumor-bearing cell (MH 134 cell: ascitic liver cancer cell) was intraperitoneally administered to mice (C3H/He line, 5-week-old, female) at a dose of 1×10^6 cells, and they were reared for 0 to 14 days. Ten days after the intraperitoneal administration of tumor-bearing cells, 50 μl of 0.12 M δ-aminolevulinic acid hydrochloride, δ-aminolevulinic acid methyl ester hydrochloride, δ-aminolevulinic acid hexyl ester hydrochloride or δ-aminolevulinic acid phosphate was orally administered to the mice to which the tumor-bearing cells had been intraperitoneally administered. From 10 to 20 μl of blood samples were collected from the orally administered mice 0, 0.25, 0.5, 2, 3, 4 or 6 hours thereafter. The thus collected blood was centrifuged at 2000×g for 5 minutes, 300 μl of ethyl acetate/acetic acid (2/1, v/v) was added to 5 μl of the supernatant (plasma), followed by mixing, 300 μl of 0.6 M NaOH solution was further added thereto, followed by mixing, and the NaOH layer was collected. To the remaining organic layer, 300 μl of 0.5 M aqueous hydrochloric acid solution was added, and the aqueous hydrochloric acid solution layer was collected. Fluorescence intensities of the NaOH layer and aqueous hydrochloric acid solution layer were measured (hydrochloric acid layer: excitation wavelength 400 nm, fluorescence wavelength 600 nm, NaOH layer: excitation wavelength 400 nm, fluorescence wavelength 619 nm), and respective concentrations were calculated from the standard solutions. In addition, δ-aminolevulinic acid hydrochloride, δ-aminolevulinic acid methyl ester hydrochloride, δ-aminolevulinic acid hexyl ester hydrochloride or δ-aminolevulinic acid phosphate was also orally administered (0.12 M, 50 μl) to normal mice as the control, and the same treatment was carried out.

normal mice [2] = experiment: Blood protoporphyrin IX and uroporphyrin by fluorescence detection after oral administration, normal mice (Example 1); type: in vivo; settings: 2 hours after oral 50 μl of 0.12 M
[3] = test system: MH 134 cell tumor-bearing mice; experiment: Uroporphyrin I and III in blood by HPLC, tumor-bearing mice (Example 2); type: in vivo, mice (C3H/He line); settings: 2 hours after oral 50 μl of 0.12 M
Description: (§1) The samples were measured by HPLC (regarding the analyzing conditions, a fluorescence detector: excitation wavelength 406 nm, fluorescence wavelength 610 nm was used, a solution consisting of 12.5% acetonitrile, 1 M ammonium acetate and 0.27 mM EDTA, pH 5.15 (adjusted with acetic acid), was used as the eluting solution, ODS-AGtypeCAPCELLPAK, 4.6 mmφ×250 mm, particle diameter 5 μm (manufactured by Shiseido) was used as the column, and the measurement was carried out at a flow rate of 1.0 ml/min and at a temperature of 25° C.), and respective concentrations were calculated from the peak areas of standard solutions.

[4] = test system: MH 134 cell tumor-bearing mice; experiment: Uroporphyrin I and III in urine by HPLC, tumor-bearing mice (Example 3); type: in vivo, mice (C3H/He line)
Description: as §1, with “The thus collected” for “The”, “619” for “610”, “the” for “the peak areas of”

normal mice [5] = experiment: Uroporphyrin I and III in urine by HPLC, normal mice (Example 3); type: in vivo; settings: 2 hours after oral 50 μl of 0.12 M
Description: as §1, with “The thus collected” for “The”, “619” for “610”, “the” for “the peak areas of”

[6] = test system: MH 134 cell tumor-bearing mice; experiment: Uroporphyrin and coproporphyrin in feces by HPLC, tumor-bearing mice (Example 4); type: in vivo, mice (C3H/He line); settings: 2 hours after oral 50 μl of 0.12 M
Description: To 10 mg in wet weight portion of the thus collected feces, 100 μl of an ethyl acetate-acetic acid mixture liquid (4/1, v/v) was added, the mixture was homogenized and then filtered using a filter paper, 10 μl of the filtrate was measured by HPLC (regarding the analyzing conditions, a fluorescence detector: excitation wavelength 406 nm, fluorescence wavelength 619 nm was used, a solution A: 80% acetonitrile/7% acetic acid/50 mM ammonium acetate mixture liquid and a solution B: 10% acetonitrile/4% acetic acid/50 mM ammonium acetate mixture liquid were used as the eluting solutions and subjected to a linear gradient of A/B (20/80)-A/B (90/10) for 30 minutes and then to the holding with solution A for 20 minutes, ODS-AGtypeCAPCELLPAK, 4.6 mmφ×250 mm, particle diameter 5 μm (manufactured by Shiseido) was used as the column, and the measurement was carried out at a flow rate of 1.0 ml/min and at a temperature of 25° C.), and respective concentrations were calculated from the peak areas of standard solutions.

normal nude mice = experiment: Uroporphyrin and coproporphyrin in urine by HPLC, normal nude mice (Example 5); type: in vivo; settings: 4 hours after oral 50 μl of 0.12 M, corrected per creatinine
Description: (§2) The thus collected urine was measured by HPLC (regarding the analyzing conditions, a fluorescence detector: excitation wavelength 406 nm, fluorescence wavelength 619 nm was used,
(§3) A: 80% acetonitrile/7% acetic acid/50 mM ammonium acetate and
(§4) B: 10% acetonitrile/4% acetic acid/50 mM ammonium acetate were used as the eluting solutions and subjected to a linear gradient of A/B (20/80)-A/B (90/10) for 13 minutes and then to elution with solution A for 10 minutes, ODS-AGtypeCAPCELLPAK, 4.6 mm×250 mm, particle diameter 5 μm (manufactured by Shiseido) was used as the column, and the measurement was carried out at a flow rate of 1.0 ml/min and at a temperature of 25° C.), and each concentration was calculated from the standard solutions. Further, the urine concentration was corrected by measuring the amount of creatinine (CRE) in urine, and calculating the amount of porphyrin per CRE.

[7] = test system: human liver cancer cell (HepG2 cell) tumor-bearing nude mice; experiment: Uroporphyrin and coproporphyrin in urine by HPLC, nude mice bearing human liver cancer cells (Example 5); type: in vivo, nude mice (BALB/cA-nu)
Description: as §2, §3, §4

[8] = test system: human cervical cancer cell (HeLa cell) tumor-bearing nude mice; experiment: Uroporphyrin and coproporphyrin in urine by HPLC, nude mice bearing human cervical cancer cells (Example 5); type: in vivo, nude mice (BALB/cA-nu)
Description: as §2, §3, §4

[9] = tumor-bearing mice, 2 hours after oral 50 μl of 0.12 M
[10] = mice given human liver cancer cells, after administration
[11] = tumor-bearing mice (human liver cancer cell), 4 hours after oral 50 μl of 0.12 M, corrected per creatinine
[12] = mice given human cervical cancer cells, after administration
[13] = tumor-bearing mice (human cervical cancer cell), 4 hours after oral 50 μl of 0.12 M, corrected per creatinine

time after administration at which concentrations of protoporphyrin IX and uroporphyrin became maximum [1]: 2 h
Structure (SMILES): CCCCCCOC(=O)CCC(=O)CN.Cl [δ-aminolevulinic acid hexyl ester hydrochloride]
uroporphyrin in blood of normal mice (normal mice [2]): hardly detected

Structure (SMILES): Cl.NCC(=O)CCC(=O)O [δ-aminolevulinic acid hydrochloride]
time after administration at which concentrations of protoporphyrin IX and uroporphyrin became maximum [1]: 2 h
uroporphyrin in blood of normal mice (normal mice [2]): hardly detected
Ratio of uroporphyrin I/uroporphyrin III in blood [3]: 0.53
Uroporphyrin I in blood, after administration [3]: 0.2 ng/µL
Uroporphyrin III in blood, after administration [3]: 0.38 ng/µL
amounts of uroporphyrin I and uroporphyrin III in urine, tumor-bearing mice in comparison with normal mice ([4]; after administration, urine 2 hours): about 13 times
Ratio of uroporphyrin I/uroporphyrin III in urine [4, 9]: 0.54
Uroporphyrin I in urine, after administration [4, 9]: 11.95 ng/µL
Uroporphyrin III in urine, after administration [4, 9]: 22.28 ng/µL
Ratio of uroporphyrin I/uroporphyrin III in urine (normal mice [5]): 0.94
Uroporphyrin I in urine, after administration (normal mice [5]): 0.95 ng/µL
Uroporphyrin III in urine, after administration (normal mice [5]): 1.01 ng/µL
Coproporphyrin in feces, after administration [6]: 0.21 pmol
Uroporphyrin in feces, after administration [6]: 1.75 pmol

time after administration at which concentrations of protoporphyrin IX and uroporphyrin became maximum [1]: 2 h
Structure (SMILES): COC(=O)CCC(=O)CN.Cl [δ-aminolevulinic acid methyl ester hydrochloride]
uroporphyrin in blood of normal mice (normal mice [2]): hardly detected

Structure (SMILES): NCC(=O)CCC(=O)O.O=P(O)(O)O [δ-aminolevulinic acid phosphate]
time after administration at which concentrations of protoporphyrin IX and uroporphyrin became maximum [1]: 2 h
uroporphyrin in blood of normal mice (normal mice [2]): hardly detected
Coproporphyrin in urine, after administration (normal nude mice): 0.99 μmol/g-CRE
Uroporphyrin in urine, after administration (normal nude mice): 0.16 μmol/g-CRE
amount of coproporphyrin in urine relative to normal mice [7, 10]: about 1.5 times
amount of uroporphyrin in urine relative to normal mice [7, 10]: about 15 times
Coproporphyrin in urine, after administration [7, 11]: 1.44 μmol/g-CRE
Uroporphyrin in urine, after administration [7, 11]: 2.47 μmol/g-CRE
amount of coproporphyrin in urine relative to normal mice [8, 12]: about 2.7 times
amount of uroporphyrin in urine relative to normal mice [8, 12]: about 94 times
Coproporphyrin in urine, after administration [8, 13]: 2.66 μmol/g-CRE
Uroporphyrin in urine, after administration [8, 13]: 15.1 μmol/g-CRE
